Measured values reported in ChEMBL document CHEMBL5579874, “Design, Synthesis, and Biological Evaluation of 2,4-Diaminopyrimidine Derivatives as Potent CDK7 Inhibitors” (ACS Med Chem Lett, 2024).
Each block holds one compound with its values, some of them ahead of it.

How the values were obtained:
[1] = molecular target: Cyclin-dependent kinase 7 (Homo sapiens, UniProt P50613); assay: Inhibition of CDK7 (unknown origin) using ULight 4EBP1 peptide as substrate incubated for 2 hrs by FRET assay
MV4-11 = assay: Antiproliferative activity against human MV4-11 cells assessed as inhibition of cell growth incubated for 72 hrs by CCK-8 assay; type: functional, cell-based; settings: MV4-11, 72 h
[2] = molecular target: Cyclin-dependent kinase 9 (Homo sapiens, UniProt P50750)
Description: Inhibition of CDK9 (unknown origin) using ULight 4EBP1 peptide as substrate incubated for 2 hrs by FRET assay

[3] = molecular target: Tyrosine-protein kinase HCK (Homo sapiens, UniProt P08631); assay: Inhibition of human HCK incubated for 1 hr by HTRF assay
[4] = molecular target: Cyclin-dependent kinase 5 (Homo sapiens, UniProt Q00535); assay: Inhibition of CDK5 (unknown origin) using ULight 4EBP1 peptide as substrate incubated for 2 hrs by FRET assay
[5] = molecular target: Hepatocyte growth factor receptor (Homo sapiens, UniProt P08581); assay: Inhibition of human MET incubated for 1 hr by HTRF assay
[6] = molecular target: Cyclin-dependent kinase 2 (Homo sapiens, UniProt P24941); assay: Inhibition of CDK2 (unknown origin) using ULight 4EBP1 peptide as substrate incubated for 2 hrs by FRET assay
[7] = molecular target: Insulin-like growth factor 1 receptor (Homo sapiens, UniProt P08069); assay: Inhibition of human IGF1R incubated for 1 hr by HTRF assay
[8] = molecular target: Epidermal growth factor receptor (Homo sapiens, UniProt P00533); assay: Inhibition of human EGFR incubated for 1 hr by HTRF assay
[9] = molecular target: Tyrosine-protein kinase Blk (Homo sapiens, UniProt P51451); assay: Inhibition of human BLK incubated for 1 hr by HTRF assay
[10] = molecular target: Cyclin-dependent kinase 6 (Homo sapiens, UniProt Q00534); assay: Inhibition of CDK6 (unknown origin) using ULight 4EBP1 peptide as substrate incubated for 2 hrs by FRET assay
[11] = molecular target: Tyrosine-protein kinase BTK (Homo sapiens, UniProt Q06187); assay: Inhibition of human recombinant BTK incubated for 1 hr by HTRF assay
[12] = molecular target: T1, Cytoplasmic tyrosine-protein kinase BMX (Homo sapiens, UniProt P51813); assay: Inhibition of human BMX incubated for 1 hr by HTRF assay
T1 sequence (P51813 whole entry): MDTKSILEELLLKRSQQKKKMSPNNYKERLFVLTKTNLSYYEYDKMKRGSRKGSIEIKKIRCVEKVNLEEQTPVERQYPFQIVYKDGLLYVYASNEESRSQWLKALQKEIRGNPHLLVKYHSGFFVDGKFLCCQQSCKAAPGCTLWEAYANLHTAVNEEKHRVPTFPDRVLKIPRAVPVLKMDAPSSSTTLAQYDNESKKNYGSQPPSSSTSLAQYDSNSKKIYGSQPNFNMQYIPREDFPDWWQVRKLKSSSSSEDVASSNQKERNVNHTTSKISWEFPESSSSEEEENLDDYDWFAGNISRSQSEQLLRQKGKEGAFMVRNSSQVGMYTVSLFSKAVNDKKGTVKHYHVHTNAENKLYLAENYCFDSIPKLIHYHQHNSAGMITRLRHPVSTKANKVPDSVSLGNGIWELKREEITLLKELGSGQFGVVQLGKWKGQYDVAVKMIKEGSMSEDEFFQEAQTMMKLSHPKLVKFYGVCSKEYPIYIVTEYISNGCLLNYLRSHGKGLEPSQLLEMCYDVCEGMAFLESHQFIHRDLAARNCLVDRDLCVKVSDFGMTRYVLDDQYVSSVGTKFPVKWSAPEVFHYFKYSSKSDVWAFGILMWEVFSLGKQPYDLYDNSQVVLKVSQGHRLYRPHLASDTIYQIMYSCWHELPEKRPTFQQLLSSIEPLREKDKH

[13] = molecular target: T2, Tyrosine-protein kinase Tec (Homo sapiens, UniProt P42680); assay: Inhibition of human TEC incubated for 1 hr by HTRF assay
T2 sequence (P42680 whole entry): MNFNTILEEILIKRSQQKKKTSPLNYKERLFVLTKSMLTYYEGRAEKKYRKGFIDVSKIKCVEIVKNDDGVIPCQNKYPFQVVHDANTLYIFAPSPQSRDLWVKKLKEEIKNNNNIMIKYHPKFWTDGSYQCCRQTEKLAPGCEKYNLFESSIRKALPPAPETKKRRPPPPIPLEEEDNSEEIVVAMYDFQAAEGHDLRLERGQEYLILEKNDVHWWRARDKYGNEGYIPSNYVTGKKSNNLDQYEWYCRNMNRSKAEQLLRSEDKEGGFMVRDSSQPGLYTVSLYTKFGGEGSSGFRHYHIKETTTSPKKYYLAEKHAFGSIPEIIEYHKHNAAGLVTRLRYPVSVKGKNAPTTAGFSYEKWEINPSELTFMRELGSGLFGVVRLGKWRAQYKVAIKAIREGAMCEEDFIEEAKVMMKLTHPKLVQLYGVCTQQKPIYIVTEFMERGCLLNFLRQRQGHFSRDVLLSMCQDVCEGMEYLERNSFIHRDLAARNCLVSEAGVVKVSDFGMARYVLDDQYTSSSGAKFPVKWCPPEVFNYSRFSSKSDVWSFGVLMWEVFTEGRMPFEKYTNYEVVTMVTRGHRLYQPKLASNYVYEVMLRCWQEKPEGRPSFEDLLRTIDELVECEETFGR

Ephrin type-A receptor 1 = molecular target: T3, Ephrin type-A receptor 1 (Homo sapiens, UniProt P21709); assay: Inhibition of human EPHA1 incubated for 1 hr by HTRF assay
T3 sequence (P21709 whole entry): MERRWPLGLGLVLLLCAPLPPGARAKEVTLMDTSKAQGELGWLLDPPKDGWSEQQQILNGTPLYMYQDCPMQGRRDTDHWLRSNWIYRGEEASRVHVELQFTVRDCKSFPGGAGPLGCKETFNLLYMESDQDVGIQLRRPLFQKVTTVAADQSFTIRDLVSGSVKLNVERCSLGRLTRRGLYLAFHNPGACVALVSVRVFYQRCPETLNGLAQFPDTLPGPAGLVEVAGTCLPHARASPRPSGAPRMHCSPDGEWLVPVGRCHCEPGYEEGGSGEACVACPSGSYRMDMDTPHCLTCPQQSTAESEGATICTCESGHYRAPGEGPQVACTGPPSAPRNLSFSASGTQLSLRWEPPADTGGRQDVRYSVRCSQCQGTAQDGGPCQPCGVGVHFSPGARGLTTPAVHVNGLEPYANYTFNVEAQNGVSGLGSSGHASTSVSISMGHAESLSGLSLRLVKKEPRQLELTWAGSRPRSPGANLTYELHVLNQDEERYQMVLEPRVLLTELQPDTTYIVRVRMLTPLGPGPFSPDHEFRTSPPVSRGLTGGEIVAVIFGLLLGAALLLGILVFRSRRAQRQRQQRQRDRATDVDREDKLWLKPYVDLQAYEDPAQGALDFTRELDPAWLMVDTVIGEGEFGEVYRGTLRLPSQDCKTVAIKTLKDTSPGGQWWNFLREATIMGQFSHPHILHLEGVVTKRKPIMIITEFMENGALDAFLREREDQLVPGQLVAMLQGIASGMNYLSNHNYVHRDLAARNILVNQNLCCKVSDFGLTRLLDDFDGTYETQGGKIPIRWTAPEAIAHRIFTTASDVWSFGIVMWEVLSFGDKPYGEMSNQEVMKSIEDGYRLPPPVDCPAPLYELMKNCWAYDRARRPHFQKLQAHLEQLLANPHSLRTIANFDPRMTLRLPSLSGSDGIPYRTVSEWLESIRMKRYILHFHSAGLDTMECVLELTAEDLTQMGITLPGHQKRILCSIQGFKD

[14] = molecular target: Cyclin-dependent kinase 3 (Homo sapiens, UniProt Q00526); assay: Inhibition of CDK3 (unknown origin) using ULight 4EBP1 peptide as substrate incubated for 2 hrs by FRET assay
[15] = molecular target: Cyclin-dependent kinase 1 (Homo sapiens, UniProt P06493); assay: Inhibition of CDK1 (unknown origin) using ULight 4EBP1 peptide as substrate incubated for 2 hrs by FRET assay
Aurora kinase A = molecular target: T4, Aurora kinase A (Homo sapiens, UniProt O14965); assay: Inhibition of Aurora A (unknown origin)
T4 sequence (O14965 whole entry): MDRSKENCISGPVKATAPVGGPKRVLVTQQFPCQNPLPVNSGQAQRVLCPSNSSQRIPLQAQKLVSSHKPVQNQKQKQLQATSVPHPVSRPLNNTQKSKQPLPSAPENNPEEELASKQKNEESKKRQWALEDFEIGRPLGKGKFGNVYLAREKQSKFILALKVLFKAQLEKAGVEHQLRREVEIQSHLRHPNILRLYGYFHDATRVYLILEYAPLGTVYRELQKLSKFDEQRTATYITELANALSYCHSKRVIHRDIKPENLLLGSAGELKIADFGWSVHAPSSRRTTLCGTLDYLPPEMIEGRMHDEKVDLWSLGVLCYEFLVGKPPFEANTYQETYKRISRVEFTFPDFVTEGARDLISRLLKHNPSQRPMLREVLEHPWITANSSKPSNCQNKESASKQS

[16] = molecular target: Cyclin-dependent kinase 4 (Homo sapiens, UniProt P11802); assay: Inhibition of CDK4 (unknown origin) using ULight 4EBP1 peptide as substrate incubated for 2 hrs by FRET assay
[17] = molecular target: Tyrosine-protein kinase Lyn (Homo sapiens, UniProt P07948); assay: Inhibition of human LYN incubated for 1 hr by HTRF assay

Structure (SMILES): Cn1ncc(-c2nc(N[C@H]3CC[C@H](N)CC3)ncc2Cl)c1CC1CC1 [BTX-A51]
IC50 [1]: 272 nM
IC50 (MV4-11): 158 nM
IC50 [2]: 18.6 nM

IC50 (MV4-11): 30.7 nM
Structure (SMILES): CN(C)C/C=C/C(=O)Nc1ccc(C(=O)Nc2cccc(Nc3ncc(Cl)c(-c4c[nH]c5ccccc45)n3)c2)cc1

IC50 [2]: 3.57 nM
Structure (SMILES): COC[C@@H](C)N[C@H]1CC[C@H](Nc2cc(-c3cccc(NCC4(C#N)CCOCC4)n3)c(Cl)cn2)CC1

IC50 [3]: > 10000 nM
IC50 [4]: 3680 nM
IC50 [5]: > 10000 nM
IC50 [6]: 735 nM
IC50 [7]: 2890 nM
IC50 [8]: > 10000 nM
IC50 [9]: > 10000 nM
IC50 [10]: 1350 nM
IC50 [11]: > 10000 nM
IC50 [12]: > 10000 nM
IC50 [13]: > 10000 nM
IC50 (Ephrin type-A receptor 1): 2480 nM
IC50 [14]: 370 nM
IC50 [15]: > 10000 nM
IC50 (Aurora kinase A): 1320 nM
IC50 [16]: 645 nM
IC50 [17]: > 10000 nM
Structure (SMILES): CC(=O)N[C@H]1CC[C@H](c2ncc(Cl)c(Nc3ccccc3S(=O)(=O)C(C)C)n2)CC1
